Test: Hygroscopicity as observed during formulation and processing
Format: physicochemical

Structure (SMILES)	hygroscopicity (in words)
C[N+](C)(C)CCO.O=C([O-])C(O)C(O)C(=O)O (centres unmarked) [Choline bitartrate]	much reduced hygroscopicity
C[N+](C)(C)CCO.[Cl-] [Choline chloride]	very hygroscopic

Reference: patent publication US20240316088A1, “Solid composition suitable as a nutritional composition or supplement for animals that suffer from brain related disorders, decline or diseases” (N.V. Nutricia, priority 2022, published 2024)
